US11382328B2, “Rapid drug discovery methods for pathogen inactivation” (priority 2019, dated 2022)

Tested on: E. coli strain W3110
Assay: Synergy assays: Biolog chemical sensitivity panels with Group IB metal, coefficient of drug interaction (CDI) from relative growth
Type: cell-based
Conditions: for CDI (coefficient of drug interaction), copper mixed with biocide: Copper (mM) section; for CDI (coefficient of drug interaction) / CDI (coefficient of drug interaction), silver + biocide: E. coli; for CDI (coefficient of drug interaction), gold + biocide: Gold (μM)

## N.N.N.N.N.N.[Cl-].[Cl-].[Cl-].[Co+3] [hexammine cobalt (III) chloride]
1st of 3 copper concentrations (value not shown), 1st of four biocide concentrations
  CDI (coefficient of drug interaction), copper mixed with biocide: 1.06
1st of 3 copper concentrations (value not shown), 3rd of four biocide concentrations
  CDI (coefficient of drug interaction), copper mixed with biocide: 1.19
1st of 3 copper concentrations (value not shown), 4th of four biocide concentrations
  CDI (coefficient of drug interaction), copper mixed with biocide: 1.51
2nd of 3 copper concentrations (value not shown), 1st of four biocide concentrations
  CDI (coefficient of drug interaction), copper mixed with biocide: 0.93
2nd of 3 copper concentrations (value not shown), 2nd of four biocide concentrations
  CDI (coefficient of drug interaction), copper mixed with biocide: 1.05
2nd of 3 copper concentrations (value not shown), 3rd of four biocide concentrations
  CDI (coefficient of drug interaction), copper mixed with biocide: 1.05
2nd of 3 copper concentrations (value not shown), 4th of four biocide concentrations
  CDI (coefficient of drug interaction), copper mixed with biocide: 1.59
3rd of 3 copper concentrations (value not shown), 1st of four biocide concentrations
  CDI (coefficient of drug interaction), copper mixed with biocide: 0.94
3rd of 3 copper concentrations (value not shown), 2nd of four biocide concentrations
  CDI (coefficient of drug interaction), copper mixed with biocide: 0.90
3rd of 3 copper concentrations (value not shown), 3rd of four biocide concentrations
  CDI (coefficient of drug interaction), copper mixed with biocide: 0.73
3rd of 3 copper concentrations (value not shown), 4th of four biocide concentrations
  CDI (coefficient of drug interaction), copper mixed with biocide: 0.87
Gold 5 μM, biocide concentration 1 of 4
  CDI (coefficient of drug interaction): 1.09
Gold 5 μM, biocide concentration 4 of 4
  CDI (coefficient of drug interaction): 1.10
Gold 25 μM, biocide concentration 1 of 4
  CDI (coefficient of drug interaction): 1.09
Gold 25 μM, biocide concentration 3 of 4
  CDI (coefficient of drug interaction): 1.08
Gold 25 μM, biocide concentration 4 of 4
  CDI (coefficient of drug interaction): 1.25
Silver 0.5 μM, 1st of four biocide concentrations
  CDI (coefficient of drug interaction), silver + biocide: 0.98
Silver 0.5 μM, 2nd of four biocide concentrations
  CDI (coefficient of drug interaction), silver + biocide: 1.05
Silver 0.5 μM, 3rd of four biocide concentrations
  CDI (coefficient of drug interaction), silver + biocide: 0.97
Silver 0.5 μM, 4th of four biocide concentrations
  CDI (coefficient of drug interaction), silver + biocide: 0.82
Silver 1.0 μM, 1st of four biocide concentrations
  CDI (coefficient of drug interaction), silver + biocide: 0.98
Silver 1.0 μM, 2nd of four biocide concentrations
  CDI (coefficient of drug interaction), silver + biocide: 1.03
Silver 1.0 μM, 3rd of four biocide concentrations
  CDI (coefficient of drug interaction), silver + biocide: 1.04
Silver 1.0 μM, 4th of four biocide concentrations
  CDI (coefficient of drug interaction), silver + biocide: 0.39
Silver 5.0 μM, 1st of four biocide concentrations
  CDI (coefficient of drug interaction), silver + biocide: 1.26
Silver 5.0 μM, 2nd of four biocide concentrations
  CDI (coefficient of drug interaction), silver + biocide: 1.43
Silver 5.0 μM, 3rd of four biocide concentrations
  CDI (coefficient of drug interaction), silver + biocide: 1.00
[…], biocide concentration 3 of 4
  CDI (coefficient of drug interaction): 1.25
[…], biocide concentration 4 of 4
  CDI (coefficient of drug interaction): 1.62

## colistin
Copper (mM), 1st of 3 copper concentrations (head line not shown), biocide concentration 1 of 4
  CDI (coefficient of drug interaction): 0.95
Copper (mM), 1st of 3 copper concentrations (head line not shown), biocide concentration 2 of 4
  CDI (coefficient of drug interaction): 0.98
Copper (mM), 1st of 3 copper concentrations (head line not shown), biocide concentration 3 of 4
  CDI (coefficient of drug interaction): Tox
Copper (mM), 1st of 3 copper concentrations (head line not shown), biocide concentration 4 of 4
  CDI (coefficient of drug interaction): Tox
Copper (mM), 2nd of 3 copper concentrations (head line not shown), biocide concentration 1 of 4
  CDI (coefficient of drug interaction): 0.82
Copper (mM), 2nd of 3 copper concentrations (head line not shown), biocide concentration 2 of 4
  CDI (coefficient of drug interaction): 0.87
Copper (mM), 2nd of 3 copper concentrations (head line not shown), biocide concentration 3 of 4
  CDI (coefficient of drug interaction): Tox
Copper (mM), 2nd of 3 copper concentrations (head line not shown), biocide concentration 4 of 4
  CDI (coefficient of drug interaction): Tox
Copper (mM), 3rd of 3 copper concentrations (head line not shown), biocide concentration 1 of 4
  CDI (coefficient of drug interaction): 0.63
Copper (mM), 3rd of 3 copper concentrations (head line not shown), biocide concentration 2 of 4
  CDI (coefficient of drug interaction): 0.45
Copper (mM), 3rd of 3 copper concentrations (head line not shown), biocide concentration 3 of 4
  CDI (coefficient of drug interaction): Tox
Copper (mM), 3rd of 3 copper concentrations (head line not shown), biocide concentration 4 of 4
  CDI (coefficient of drug interaction): Tox
First of 3 gold concentrations, biocide concentration 1 of 4
  CDI (coefficient of drug interaction), gold + biocide: 1.10
First of 3 gold concentrations, biocide concentration 2 of 4
  CDI (coefficient of drug interaction), gold + biocide: 1.18
First of 3 gold concentrations, biocide concentration 3 of 4
  CDI (coefficient of drug interaction), gold + biocide: Tox
First of 3 gold concentrations, biocide concentration 4 of 4
  CDI (coefficient of drug interaction), gold + biocide: Tox
Second of 3 gold concentrations, biocide concentration 2 of 4
  CDI (coefficient of drug interaction), gold + biocide: 0.95
Second of 3 gold concentrations, biocide concentration 3 of 4
  CDI (coefficient of drug interaction), gold + biocide: Tox
Second of 3 gold concentrations, biocide concentration 4 of 4
  CDI (coefficient of drug interaction), gold + biocide: Tox
Third of 3 gold concentrations, biocide concentration 1 of 4
  CDI (coefficient of drug interaction), gold + biocide: 1.09
Third of 3 gold concentrations, biocide concentration 2 of 4
  CDI (coefficient of drug interaction), gold + biocide: 0.14
Third of 3 gold concentrations, biocide concentration 3 of 4
  CDI (coefficient of drug interaction), gold + biocide: Tox
Third of 3 gold concentrations, biocide concentration 4 of 4
  CDI (coefficient of drug interaction), gold + biocide: Tox
Silver 0.5 μM, biocide concentration 1 of 4
  CDI: 0.95
Silver 0.5 μM, biocide concentration 2 of 4
  CDI: 0.75
Silver 0.5 μM, biocide concentration 3 of 4
  CDI: Tox
Silver 0.5 μM, biocide concentration 4 of 4
  CDI: Tox
Silver 1.0 μM, biocide concentration 1 of 4
  CDI: 0.97
Silver 1.0 μM, biocide concentration 2 of 4
  CDI: 0.24
Silver 1.0 μM, biocide concentration 3 of 4
  CDI: Tox
Silver 1.0 μM, biocide concentration 4 of 4
  CDI: Tox
Silver 5.0 μM, biocide concentration 1 of 4
  CDI: 0.84
Silver 5.0 μM, biocide concentration 2 of 4
  CDI: 0.08
Silver 5.0 μM, biocide concentration 3 of 4
  CDI: Tox
Silver 5.0 μM, biocide concentration 4 of 4
  CDI: Tox
